In one assay the test system is T1, LptA/LptC.
T1 construct: complex formed on chip: LptC immobilized, LptA in solution; both N-terminal 6-His tagged, expressed in E. coli BL21(DE3)
Description: SPR, LptA preincubated with compound passed over immobilized LptC. Type of assay: binding, Escherichia coli. The conditions noted are these: inhibition of LptA/LptC protein-protein interaction; LptA 15 ug/mL, compound 0-4 ug/mL, PBST. Background: In SPR one partner is held on a chip, and binding of the other changes the refractive index at the surface.

The target in a further assay is T2, LptC (Escherichia coli, UniProt P0ADV9).
T2 construct: synthetic gene in pET-28a, N-terminal 6-His tag, expressed in E. coli BL21(DE3), His-Trap purified
T2 sequence (P0ADV9 1-191): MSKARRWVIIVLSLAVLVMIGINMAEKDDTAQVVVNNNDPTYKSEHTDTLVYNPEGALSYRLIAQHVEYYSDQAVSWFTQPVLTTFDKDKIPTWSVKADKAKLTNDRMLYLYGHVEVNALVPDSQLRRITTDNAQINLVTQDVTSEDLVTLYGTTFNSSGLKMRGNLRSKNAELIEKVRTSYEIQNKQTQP
In words: SPR, LptC immobilized on carboxymethyl dextran chip. Type of assay: binding. The source says: SPR, LptC immobilized on carboxymethyl dextran chip on LptC

The next assay addresses T3, LptA (Escherichia coli, UniProt P0ADV1).
T3 construct: synthetic gene in pET-28a, N-terminal 6-His tag, expressed in E. coli BL21(DE3), His-Trap purified
T3 sequence (P0ADV1 28-185): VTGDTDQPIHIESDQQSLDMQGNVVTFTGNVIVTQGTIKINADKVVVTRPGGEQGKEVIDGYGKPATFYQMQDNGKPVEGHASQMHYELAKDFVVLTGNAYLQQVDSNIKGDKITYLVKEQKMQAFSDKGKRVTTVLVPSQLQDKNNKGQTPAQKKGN
Description: SPR, LptA immobilized on carboxymethyl dextran chip. The assay is classed as binding. The text has this:
SPR, LptA immobilized on carboxymethyl dextran chip on LptA

Assay [1] addresses T4, LptC protein with a 6-His tag at the N-terminal (Escherichia coli) (UniProt P0ADV9).
T4 sequence (P0ADV9 whole entry, looked up): T2 sequence (P0ADV9 1-191)
Description: SPR; Reichert SPR system; LptC immobilised on a mixed self-assembled monolayer (SAM) sensor chip; LptA 0.164 µM to 2.624 µM in PBST (0.01 M Na Phosphate, 0.15 M NaCl, 0.05% Tween 20) passed over; regeneration 1 M NaCl 90 s; TraceDrawer 1.7.1.

One may read the Kd as the equilibrium constant for the complex coming apart. Read a low Kd as higher affinity. On to `CN(C)c1ccc(/C=C/c2cc(C(C)(C)C)[o+]c(C(C)(C)C)c2)cc1` [IMB-0042], for which, in the assay with LptA/LptC, the “SPR, LptA preincubated with compound passed over immobilized LptC” value is recorded as “Compound IMB-0042 blocked LptA/LptC interaction”. The equilibrium dissociation constant (Kd) stood at 32.6 µM at LptC and 4.67 µM at LptA.

B1: LptA protein with a 6-His tag at the N-terminal (natural protein)
chain: T3 sequence (P0ADV1 28-185)
By koff is commonly meant the rate constant with which the complex falls apart. A low value points to slow dissociation. One may read the kon as the rate constant with which the complex forms. Lower therefore signals slow association. As for B1, in assay [1], the equilibrium dissociation constant (Kd) was 2.28 µM, the off-rate (koff) stood at 0.385 s⁻¹ and the on-rate (kon) came to 169000 M⁻¹ s⁻¹.

Values taken from PMC9598311, “Identification of a Small Molecule That Inhibits the Interaction of LPS Transporters LptA and LptC” (Antibiotics, 2022).
